US6723723B1, “Heterocyclic derivatives as inhibitors of factor Xa” (AstraZeneca, priority 1999, dated 2004)
Where a name gives a salt, the structure may show the parent alone.

O=C(c1ccc(-c2ccncc2)nc1)N1CCN(S(=O)(=O)c2cc3cc(Cl)ccc3[nH]2)CC1 (as salt: hydrochloride) [Example 1, 1-(5-Chloroindol-2-ylsulphonyl)-4-[6-(4-pyridyl)nicotinoyl]piperazine]
melting point: 186 to 190 °C
